SMILES strings stand for the structures. Marks after values point to notes of the source that are not given here.

What all share (assay type): in vivo, mouse
Data set [1] deals with C57BL/6 mice. Nature of the data set: Hepatic steatosis and organ mass in oral PN diet fed C57BL/6 mice, subsequent experiment at two dosages (H&E). Particulars: 19 days. From the text:
Male C57BL/6 mice, 6 to 8 weeks old at initiation of the experiments, were used for all experimental groups. Mice were fed either an ad libitum diet of standard rodent chow (calorie composition: 26% protein, 14% fat, 60% carbohydrates) and water or a parenteral nutrition (PN) solution that mimics the PN diet used in neonatal intensive care units. The PN solution was a fat-free, high-carbohydrate liquid diet (20% dextrose, 2% essential and nonessential amino acids, 0.2% pediatric trace elements, 0.5% pediatric multivitamins, 30 mEq of sodium, 20 mEq of potassium, 15 mEq of calcium (as calcium gluconate), 10 mEq of magnesium, 10 mEq of phosphate, 5 mEq of acetate, and 30 mEq of chloride per liter) administered as a single 50 mL bottle per cage which mice consumed ad libitum. […] Prince et al., JPEN J Parenter Enteral Nutr., 2014; 38(5): 608-616.
In a subsequent experiment, both Compound A and Compound B were tested at two dosages. The results of this experiment are described in Example 15.
Male C57BL/6 mice, 6 to 8 weeks old at initiation of the experiments, were used for all experimental groups. One group was fed an ad libitum diet of standard rodent chow and water. The group fed standard rodent chow received no additional treatments during the experimental period and served as a negative control group. Seven other groups (10 mice per group) were fed the PN solution described above ad libitum.
Of the seven groups that received the PN diet, each group received one of the following orogastric protocols administered every other day over 19 days: • (1) Saline: saline solution administered isovolumetric with the Omegaven® group; • (2) MCT: medium-chain triglyceride oil (MCT) (Nestle™ HealthCare Nutrition, Florham Park, NJ), at a dose of 7.4 g of fat/kg body weight; • (3) Omegaven®: Omegaven® (commercial fish oil lipid emulsion) at a dose of 2.4 g fat/kg body weight; • (4) Compound A LOW: Compound A at a dose of 0.3 mmol/kg bw day (diluted in MCT to 0.0375 mmol/mL, resulting in administration of 7.4 g of MCT/kg weight); • (5) Compound A HI: Compound A at a dose of 0.6 mmol/kg bw day (diluted in MCT to 0.075 mmol/mL, resulting in administration of 7.4 g of MCT/kg weight); • (6) Compound B LOW: Compound B at a dose of 0.3 mmol/kg bw day (diluted in MCT to 0.0375 mmol/mL, resulting in administration of 7.4 g of MCT/kg weight); and • (7) Compound B HI: Compound B at a dose of 0.6 mmol/kg bw day (diluted in MCT to 0.075 mmol/mL, resulting in administration of 7.4 g of MCT/kg weight).
After 19 days of treatment, organs were harvested, including the liver, kidney, and spleen, which were analyzed for relative weight between each group. Livers were also fixed and frozen on dry ice, then stored at −80° C. for hematoxylin and eosin (H&E) stain analysis and Oil Red O analysis.

The test system of data set [2] is ob/ob AMLN mice. The experiment in a line: Glycemic control (oral glucose tolerance test, fasting glucose and insulin) in ob/ob AMLN mice. As to conditions: 0.3 mmol/kg bw day. The procedure:
(§1) ob/ob mice are consistently fibrosis (liver) prone when cholesterol (2%) and 40% fat (containing 18% trans-fatty acids) and 20% fructose are added to a high-caloric diet (i.e., AMLN diet). ob/ob mice on AMLN diet (termed ‘ob/ob AMLN mice’) develop steatohepatitis and fibrosis within a shorter timeframe (<12 weeks) compared with wild-type C57BL/6 mice (AMLN mice) fed the same diet. ob/ob AMLN mice provide an obese diet-induced model of NASH that also allows the study of effects on glycemic control.
Thirty male ob/ob mice (5 weeks old) were fed the AMLN diet for 15 weeks then randomised into 3 groups of 10 mice/group to receive Compound B or Compound A (both at 0.3 mmol/kg bw day) or no treatment (vehicle) for a further 4 weeks. Assessment of the hepatic expression of key genes regulating plasma lipid concentrations (LDLr), hepatic fibrosis (collA1), bile acid transport/re-uptake (Slc51b and Slc10a2) and inflammation (CD68) was made via RNA sequencing at 4 weeks. […] An additional group of mice (n=5) were also treated with a PPAR-γ agonist (pioglitazone, 30 mg/kg bw day) was also included to compare effects upon bodyweight.

The nature of data set [3]: Relative bodyweight in ob/ob AMLN mice. Particulars: 0.3 mmol/kg bw day, 4 weeks treatment, FIG. 11. The procedure: as §1
(§2) Thirty male ob/ob mice (5 weeks old) were fed the AMLN diet for 15 weeks then randomised into 3 groups of 10 mice/group to receive Compound B or Compound A (both at 0.3 mmol/kg bw day) or no treatment (vehicle) for a further 4 weeks. Assessment of the hepatic expression of key genes regulating plasma lipid concentrations (LDLr), hepatic fibrosis (collA1), bile acid transport/re-uptake (Slc51b and Slc10a2) and inflammation (CD68) was made via RNA sequencing at 4 weeks. To assess the effects of Compound B and Compound A on glycemic control, an oral glucose tolerance test (OGTT) was also performed at 3 weeks. An additional group of mice (n=5) were also treated with a PPAR-γ agonist (pioglitazone, 30 mg/kg bw day) was also included to compare effects upon bodyweight.

Data set [4] has as its system hepatic expression of key genes. Nature of the data set: Hepatic target gene expression via RNA sequencing in ob/ob AMLN mice. Particulars: 0.3 mmol/kg bw day, 4 weeks treatment. The procedure: as §1, §2
Data set [5] deals with APOE*3Leiden mice. Nature of the data set: Plasma lipids in high-fat diet fed APOE*3Leiden mice. Particulars: for triglyceride levels over 4 weeks: further study with reference compounds, 0.3 mmol/kg bw/day, FIG. 31. The procedure:
The APOE*3Leiden mouse expresses a variant of the human apolipoprotein E3 (APOE3), the APOE*3Leiden, in addition to the human apolipoprotein C1 (APOC1).
Studies were performed in APOE*3Leiden mice (13-15 weeks old) placed on a semi-synthetic high fat diet (24% fat w/w) with 0.25% cholesterol w/w. After a 4-week run-in period, mice were sub-divided into groups of 5 mice each and administration of Compound A, Compound B, or vehicle alone was started. Both Compound B and Compound A were administered at a dose of 0.3 mmol/kg bw/day via diet. Sunflower oil (10 ml v/w) was used as a vehicle to facilitate mixing. After 4 weeks of treatment mice were sacrificed by C02 asphyxiation and plasma cholesterol and triglycerides were measured using commercially available kits (Roche*/Hitachi©).
In a further study, performed as described above, the effects of Compound A, Compound B, and Compound C were compared with the effects of Reference Compound 1 ((Z)-3-(pent-2-en-1-yloxy)benzoic acid) and Reference Compound 2 ((Z)-4-(pent-2-en-1-yloxy)benzoic acid) on triglyceride levels. […] The results of this study are described in Example 17.

[6] abbreviates: oral PN diet, high and low dosages, FIG. 18.
[7] abbreviates: high-fat high-cholesterol diet, 4 weeks treatment.
The mark [8] stands for this setting: high-fat high-cholesterol diet, 4 weeks treatment, dose 0.1 mmol/kg bw/day.
Where [9] appears, read: high-fat high-cholesterol diet, 4 weeks treatment, dose 0.3 mmol/kg bw/day.

For `CC/C=C\COc1cccc(C(=O)O)c1C` [Compound B, (Z)-2-methyl-3-(pent-2-en-1-yloxy)benzoic acid], the “development of steatosis induced by an oral PN diet (H&E stain in isolated liver sections)” value in data set [1] (0.3 and 0.6 mmol/kg bw day in MCT by orogastric gavage, FIGS. 14-17) is on record as “prevented the development of steatosis”. For the same compound, in data set [1] (setting [6]), the “body mass vs chow-fed or PN-fed saline groups” value was “not significantly different”, the “liver/body mass vs chow-fed or PN-fed saline groups” value is on record as “not significantly different” and the “spleen/body mass vs chow-fed or PN-fed saline groups” value is reported as “not significantly different”. Besides, the “total plasma glucose (area-under-the-curve from 0-240 mins) versus vehicle in response to an oral glucose load” value in data set [2] (after 3 weeks treatment, FIG. 1) is listed as “significantly reduce”. The “plasma glucose at 30- and 60-mins versus vehicle in response to an oral glucose load” value in data set [2] (after 3 weeks treatment, FIG. 2) was “significantly reduce”. Further, in data set [2] (after 4 weeks treatment, FIG. 3), the “fasting plasma insulin versus vehicle” value is given as “reduce”. In data set [2] (after 4 weeks treatment, FIG. 4), the “fasting plasma glucose versus vehicle” value was “significantly reduce”. Also, in data set [3], the “relative bodyweight versus vehicle” value is on record as “no effect”. For the same compound, in data set [4] (FIG. 5), the “hepatic expression of Coll al (collagen1a1) versus vehicle” value was “significantly reduce”. Also, the “expression of hepatic LDLr versus vehicle” value in data set [4] (FIG. 12) is “significantly increase”. Further, in data set [5] (setting [7]), the “plasma TG versus vehicle” value was “significantly reduce” and the “total plasma cholesterol versus vehicle” value is “significantly reduce”. In data set [5] (setting [8]), the “Reduction in plasma TG vs control (%)” value is on record as 45** % and the “Reduction in plasma cholesterol vs control (%)” value is recorded as 24** %. In data set [5] (setting [9]), the “Reduction in plasma TG vs control (%)” value is recorded as 63** % and the “Reduction in plasma cholesterol vs control (%)” value is reported as 27** %.

With `CC/C=C\COc1cccc(C(=O)O)c1` [Reference Compound 1, (Z)-3-(pent-2-en-1-yloxy)benzoic acid, reference compound], the “triglyceride levels over 4 weeks” value in data set [5] was “did affect”.

Turning to `CC/C=C\COc1ccc(C(=O)O)cc1` [Reference Compound 2, (Z)-4-(pent-2-en-1-yloxy)benzoic acid, reference compound], in data set [5], the “triglyceride levels over 4 weeks” value is listed as “did affect”.

The record behind these values is patent US12473249B2, “Aromatic compounds and pharmaceutical uses thereof” (BASF AS, priority 2018, dated 2025).
